Measured values: patent US8652804B2, “Transcription factor-based biosensors for detecting dicarboxylic acids” (priority 2011, dated 2014)

Legend:
[1] = target: PcaR transcription factor (Pseudomonas putida, UniProt Q52154); conditions: for biosensor response (OD600 increase / tetracycline resistance) in words: plasmids S3/S2, 25 μg/ml tetracycline, 12 hours growth; for linear response range: plasmids S3/S2, E. coli K12, tetracycline medium, 12 hours, exogenously added dicarboxylic acid; for dynamic range (maximum difference in OD600 between fully induced samples and samples without dicarboxylic acid), ranking in words: plasmids S3/S2, compared among the four dicarboxylic acids
Protocol: The X-axis is the concentration of exogenous dicarboxylic acid supplemented to the growth medium; the Y-axis is the cell culture density (OD600) after 12 hours growth in medium supplemented with 25 μg/ml tetracycline. E. coli strain “PcaR (+)” comprises plasmids S3/S2 and produces the tetracycline resistance protein upon exogenous addition of dicarboxylic acids. E. coli strain “PcaR (−)” comprises plasmids S1/S2 and produces a negative control protein, PcaI, upon exogenous addition of the indicated dicarboxylic acids.
Three plasmids were used to characterize biosensor response to exogenously added butanedioic acid, pentanedioic acid, hexanedioic acid and heptanedioic acid. The constructed plasmids employ the beta-keto hexanedioic acid and hexanedioic responsive transcription factor, PcaR, and the PcaR-responsive promoters, PPcaR (SEQ ID NO: 16) and PPcaIJ (SEQ ID NO:17), from Pseudomonas putida. Plasmid 51 harbors the P. putida gene pcaI under transcriptional control of it native PPcaIJ promoter on an E. coli vector backbone with ampicillin resistance marker and ColE1 origin of replication. Plasmid S3 harbors the tetA tetracycline resistance gene under control of the PcaIJ promoter on an E. coli vector backbone with ampicillin resistance marker and ColE1 origin of replication. Plasmid S2 harbors the pcaR transcription factor gene under control of its native PPcaR promoter on an E. coli vector backbone comprising a chloramphenicol resistance marker and pSC101 origin of replication.
E. coli strain K12 was co-transformed with either plasmids S1/S2 or S3/S2 and individual colonies isolated from LB agar plates (Cb^50, Cm^50). Colonies were grown in 25 ml LB broth (Cb^50, Cm^50) until reaching an optical density at 600 nm (OD600) of approximately 0.50, at which point cell stocks were prepared and stored at −80° C.; cell stocks were comprised of 0.5 ml cell culture and 0.5 ml of a 50% v/v glycerol solution.
Biosensor experiments were performed with butanedioic acid, pentanedioic acid, hexanedioic acid, and heptanedioic acid. An aliquot of biosensor cell stock was thawed and used to inoculate 50 ml of LB medium (Cb^50, Cm^50) in a 250 ml, baffled Erlenmeyer flask. Cultures were incubated for 2 hours at 37° C.; subsequently, 0.6 ml biosensor culture was added to 48-well plates prepared with 2.3 ml LB medium (Cb^50, Cm^50) supplemented with tetracycline and dicarboxylic acid at the desired concentration (n=4). Plates were than grown at 30° C. on an orbital titer plate shaker (Lab Line Instruments). Following 12 hours incubation, 200 μl samples were taken for OD600 measurement (Tecan Ultra).

[2] = test system: E. coli DcuS-DcuR two-component system; conditions: plasmid S4 (PDctA-tetA), E. coli K12, 25 μg/ml tetracycline, 12 hours, exogenously added acid
Protocol: This example describes a dicarboxylic acid-responsive two-component system of the invention comprised of the E. coli DcuS-DcuR proteins expressed in a wild type E. coli K12 host.
(§1) E. coli strain K12 was transformed with plasmids S4, S5, or S6 and individual colonies isolated from LB agar plates (Cb^50). Colonies were grown in 25 ml LB broth (Cb^50) until reaching an optical density at 600 nm (OD600) of approximately 0.50, at which point cell stocks were prepared and stored at −80° C.; cell stocks comprised 0.5 ml cell culture and 0.5 ml of 50% v/v glycerol in water.
(§2) Biosensor experiments were performed with butanedioic acid. An aliquot of biosensor cell stock was thawed and used to inoculate 50 ml of LB medium (Cb^50) in a 250 ml, baffled Erlenmeyer flask. […] Plates were grown at 30° C. on an orbital titer plate shaker (Lab Line Instruments). Following 12 hours incubation, 200 μl samples were taken for OD600 measurement (Tecan Ultra).

[3] = test system: E. coli DcuS-DcuR two-component system; conditions: plasmids S5 (PDcuB#21) or S6 (PDcuB#22), 25 μg/ml tetracycline
Protocol: as §1, §2

PcaR transcription factor, sequence (Q52154 whole entry L6P/V7A/D9E/P10S/V11A/P15S/S20A/A21P/M23L/S96T/G197D/H210N/P212A): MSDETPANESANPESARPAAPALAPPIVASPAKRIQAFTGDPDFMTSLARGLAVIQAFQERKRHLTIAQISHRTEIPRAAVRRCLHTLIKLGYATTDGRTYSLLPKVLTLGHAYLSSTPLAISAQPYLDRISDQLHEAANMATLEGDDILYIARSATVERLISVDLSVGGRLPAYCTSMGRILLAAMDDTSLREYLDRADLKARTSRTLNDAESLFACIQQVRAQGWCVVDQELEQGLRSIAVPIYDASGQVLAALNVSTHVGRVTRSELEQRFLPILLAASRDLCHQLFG

SMILES	biosensor response (OD600 increase / tetracycline resistance) in words [1]	linear response range [1] [mM]	dynamic range (maximum difference in OD600 between fully induced samples and samples without dicarboxylic acid), ranking in words [1]	dynamic range of biosensor response [2]	growth of biosensor cultures versus acid concentration, in words [3]
O=C(O)CCCCCC(=O)O [heptanedioic acid]	dicarboxylic acid-dependent increases in tetracycline resistance	0.5 to 6	highest dynamic range	–	–
O=C(O)CCCCC(=O)O [hexanedioic acid]	dicarboxylic acid-dependent increases in tetracycline resistance	0.25 to 6	highest dynamic range	–	–
O=C(O)CCCC(=O)O [pentanedioic acid]	dicarboxylic acid-dependent increases in tetracycline resistance	1 to 2.5	–	–	–
O=C(O)CCC(=O)O [butanedioic acid]	dicarboxylic acid-dependent increases in tetracycline resistance	1.5 to 4	–	over 1.2 OD600 units	grew under all butanedioic acid concentrations tested
